# Laboratory results taken from patent publication US20140073778A9, “CONJUGATES COMPRISING HYDROXYALKYL STARCH AND A CYTOTOXIC AGENT AND PROCESS FOR THEIR PREPARATION” (priority 2010, published 2014).
# Marks after values point to notes of the source that are not given here.
# Assays:
# [1] = Body weight change as sign of toxicity in HT-29 xenograft-bearing mice; assay type: in vivo, NMRI:nu/nu mice
# Method: (§1) […] The application volume was 0.2 ml/20 g mouse body weight. The test compounds, the vehicle controls and the reference compounds were all given intravenously (i.v.).
# (§2) Tumor growth inhibition was used as therapeutic parameter. Additionally, body weight change was determined as signs for toxicity (particularly, potential hematological or gastrointestinal side effects).
# Individual body weights of mice were determined twice weekly and mean body weight per group was related to the initial value in percent (body weight change, BWC).
# On the day of necropsy mice were sacrificed by cervical dislocation and inspected for gross organ changes.
# The loss of body weight is known to be an indicator of gastrointestinal and hepatotoxicity of the tested compound.
# [2] = tested on: human colon carcinoma HT-29; experiment: Tumor growth inhibition (relative tumor volume, T/C) in s.c. HT-29 xenograft model; assay type: in vivo, human (xenograft in NMRI:nu/nu mice)
# Method: The cells were obtained from ATCC and are cryo-preserved within the EPO tumor bank. They were thawed, expanded in vitro and transplanted as cell suspension subcutaneously (s.c.) in female NMRI:nu/nu mice. […] It was therefore selected for this study.
# For experimental use 10^7 tumor cells/mouse from the in vitro passage were transplanted s.c. into the flank of each of 10 mice/group at day 0.
# as §1, §2
# Tumor diameters were measured twice weekly with a caliper. Tumor volumes were calculated according to V=(length×(width)^2)/2. For calculation of the relative tumor volume (RTV) the tumor volumes at each measurement day were related to the day of first treatment. At each measurement day the median and mean tumor volumes per group and also the treated to control (T/C) values in percent were calculated.
# Descriptive statistics were performed on the data of body weight and tumor volume. […] Statistical evaluation was performed with the U-test of Mann and Whitney with a significance level of p≦0.05, using the Windows program […] 6.
# Solutions were prepared immediately before injection by solving the conjugates in saline solution by vortexing in combination with centrifugation until a clear solution of the necessary concentration of the drug was obtained.
# [3] = tested on: human lung carcinoma LXFL-529; experiment: Tumor growth inhibition (relative tumor volume) in LXFL-529 xenograft model; assay type: in vivo, human (xenograft in NMRI nu/nu mice)
# From the text: (§3) Mouse strain: NMRI nu/nu, female Animals supplied by: Charles River, Germany Age of mice at implantation: 5-7 weeks
# (§4) The tumor xenografts LXFL-529 and MAXF-401 (Fiebig H H, Berger D P, Dengler W A, Wallbrecher E, Winterhalter B R: Combined In Vitro/In Vivo Test Procedure with Human Tumor Xenografts for New Drug Development. Contrib. Oncol., Basel, Karger, 1992, Vol. 42, pp 321-351) used in this study were derived from surgical specimen from patients treated at the University Hospital in Freiburg, Germany, and directly implanted into nude mice. Prior to surgery, most of the patients had not received any chemotherapy.
# (§5) Tumor fragments were obtained from xenografts in serial passage in nude mice. After removal from donor mice, tumors were cut into fragments (4-5 mm diameter) and placed in PBS until subcutaneous implantation. Recipient mice were anaesthetized by inhalation of isoflurane. A small incision was made in the back and one tumor fragment per animal was transplanted with tweezers. The mice were monitored daily.
# At randomization, tumor-bearing animals were stratified according to tumor volume into treatment and vehicle (control) groups. Only animals carrying one tumor of appropriate size (approximately 50-250 mm^3) were considered for randomization. Mice were randomized when the required number of mice qualified for randomization. The day of randomization was designated as day 0, which was also the first day of dosing.
# (§6) All test items were formulated in 0.9% NaCl solution and given as i.v. bolus injection.
# (§7) Measurement of tumor volume and body weight as well as calculations of relative tumor volumes were carries out analgue to the procedure described in 2.3.
# [4] = Body weight change / toxicity in MAXF-401 xenograft-bearing mice; assay type: in vivo, NMRI nu/nu mice; details: Table 18, CA4P 50, 40 mg/kg/inj. d 0, 10, CCs1 60 d 0, CCs2 60, 40 d 0, 10
# Method: All experiments were conducted according to the guidelines of the German Animal Welfare Act (Tierschutzgesetz). Animal health was examined prior to tumor implantation and randomization to ensure that only animals without any symptoms of disease were selected to enter testing procedures. During the experiments, animals were monitored daily regarding tumor burden, general condition, feed and water supply.
# as §6, §7
# [5] = tested on: human mammary carcinoma (MAXF-401); experiment: Tumor growth inhibition (relative tumor volume) in MAXF-401 xenograft model; assay type: in vivo, human (xenograft in NMRI nu/nu mice)
# From the text: as §3, §4, §5
# At randomization, tumor-bearing animals were stratified according to tumor volume into treatment and vehicle (control) groups. Only animals carrying one tumor of appropriate size (approximately 50-250 mm^3) were considered for randomization. Mice were randomized when the required number of mice qualified for randomization. […]
compound,measurement,setting,value
CCc1c2c(nc3ccc(OC(=O)N4CCC(N5CCCCC5)CC4)cc13)-c1cc3c(c(=O)n1C2)COC(=O)[C@]3(O)CC [Irinotecan],Toxic death (day),"[1]; Table 14, number of toxic deaths of 8 mice, Irinotecan 15 mg/kg/inj. d 9-13, conjugates 60 mg/kg/inj. d 9, day of death in parentheses",1
same,Toxic death (at day),"[1]; Table 17, number of toxic deaths per group (day), treatment d 8, Irinotecan 60, CSN21 30, CSN23 60, CSN22 and CIr1-3 80 mg/kg/inj.",1 (20)
same,RTV T/C (%) Optimum (at day),"[2]; Table 14, optimum at day 54, Irinotecan 15 mg/kg/inj. d 9-13, conjugates 60 mg/kg/inj. d 9",48.2%
same,RTV T/C (%) Optimum (at day),"[2]; Table 15, Irinotecan 15 mg/kg/inj. d 8-12, conjugates 60 mg/kg/inj. d 8, day of optimum printed below value (30; CSN10 34; CSN13 13)",27.7* %
same,RTV T/C (%) Optimum (at day),"[2]; Table 16, 60 mg/kg/inj. d 7, day of optimum in parentheses (21-42)",66.3%
COc1cc([C@@H]2c3cc4c(cc3[C@@H](O[C@@H]3O[C@@H]5CO[C@@H](C)O[C@H]5[C@H](O)[C@H]3O)[C@H]3COC(=O)[C@H]23)OCO4)cc(OC)c1O [V-16 (Etoposid)],Tumor volume cm^3/d 16,"[3]; Table 19, day 16, treatment d 0, 3, 7, Etoposid 20 mg/kg/inj., CEt1 20, 40, 50 mg/kg/inj.",0.293 +/− 0.137 cm^3
same,RTV T/C (%) Optimum (at day),"[3]; Table 19, optimum at day 16, treatment d 0, 3, 7, Etoposid 20 mg/kg/inj., CEt1 20, 40, 50 mg/kg/inj.",15.5 (16) %
same,RTV T/C (%) re-normalized on day 7,"[3]; Table 19, re-normalized on day 7, treatment d 0, 3, 7, Etoposid 20 mg/kg/inj., CEt1 20, 40, 50 mg/kg/inj.",22.6%
"COc1ccc(/C=C\c2cc(OC)c(OC)c(OC)c2)cc1OP(=O)([O-])[O-].[Na+].[Na+] [combretastatin A4 phosphate, Combretastatin A4 phosphate disodium salt]",BWC [%] (at day),[4]; day of value in parentheses,−1.8 (7) %
same,Mortality (at day),[4]; deaths of 4 mice (day),0
same,inhibition of tumor growth,"[5]; MAXF-401 xenografts in nude mice, i.v. bolus",only modest anti-tumor activity
same,RTV T/C (%) Optimum (at day),"[5]; Table 18, CA4P 50, 40 mg/kg/inj. d 0, 10, CCs1 60 d 0, CCs2 60, 40 d 0, 10, day of optimum in parentheses",59.8 (13) %
"COc1cc([C@@H]2c3cc4c(cc3[C@@H](O[C@@H]3O[C@@H]5CO[C@@H](C)O[C@H]5[C@H](O)[C@H]3O)[C@H]3COC(=O)[C@H]23)OCO4)cc(OC)c1O [etoposide, Etoposide]",loss of tumor volume between d7 and d16,"[3]; LXFL-529 xenografts in nude mice, tumor shrinkage after day 7",26%
same,tumors still shrinking or at least stabile,"[3]; LXFL-529 xenografts, at the last day of the experiment",2/5
